Test results published in publication PMC6149668, “In Silico Identification and In Vitro Evaluation of Natural Inhibitors of Leishmania major Pteridine Reductase I” (Molecules : A Journal of Synthetic Chemistry and Natural …, 2017).
pEC50, pIC50: −log10 of the molar value. Like-named read-outs stand apart in the source and are kept apart here.

Experiments:
[1] = target: T1, recombinant LmPTR1 (Leishmania major pteridine reductase I) (Leishmania major, UniProt Q01782); test: biochemical; settings: for % Inhibition at c = 50 µM: inhibitor 50 µM
T1 construct: poly-His (N); made in house; host or cells: E. coli BL21 (DE3)
Experimental: (§1) In order to assess the inhibitory activity of the compounds identified in silico, spectrophotometric inhibition assays were performed on recombinant LmPTR1, measuring the decreasing concentration of NADPH at 340 nm as a linear kinetic parameter for LmPTR1 activity at saturating concentrations of NADPH (co-substrate) and folic acid (substrate). First, each in silico hit was added to a concentration of 50 µM, and the resulting linear plots of absorbance vs. time were compared with those recorded in the absence of an inhibitor.
The determination of the inhibitory activity of the in silico hits was carried out by a UV-Vis spectrophotometric assay on recombinantly produced LmPTR1. In order to assess the catalytic activity of LmPTR1, the oxidation of NADPH to NADP^+ was followed with a Hitachi U-2900 UV-Vis spectrophotometer at 340 nm as a linear kinetic parameter. Reference measurements without the addition of inhibitors were used to determine the full catalytic activity (100% value), and subsequent measurements with inhibitory compounds were calculated accordingly. The total assay volume of 1 mL consisted of sodium phosphate buffer (50 mM NaH2PO4, 100 mM NaCl, pH 6), 250 µM NADPH, 35 µg LmPTR1, 22.5 µM folic acid, and varying inhibitor concentrations. The tested inhibitors were dissolved in DMSO (10 mM stock solutions), and appropriate volumes were added to the assays to obtain the desired assay concentrations in such a way that a DMSO concentration between 0.1–1% resulted. […] Initial tests were performed at an inhibitor concentration of 50 µM in triplicate.

[2] = Solubility under the LmPTR1 assay conditions; type: physicochemical; settings: sodium phosphate buffer pH 6, DMSO 0.1–1%
Experimental: as §1, with “inhibitor. […] For 2,3-dehydrosilybin A (1), complete inhibition could not be achieved. The maximum of inhibition achieved with this compound was 64% at a concentration of 50 µM. […] Plots of the inhibitory activity as a function of concentration for compounds 1 to 6 are shown in the Supplementary Materials Figures S10–S15, and the resulting IC50 and EC50 values are reported in Table 1.” for “inhibitor.”
The determination of the inhibitory activity of the in silico hits was carried out by a UV-Vis spectrophotometric assay on recombinantly produced LmPTR1. […] Reference measurements without the addition of inhibitors were used to determine the full catalytic activity (100% value), and subsequent measurements with inhibitory compounds were calculated accordingly. […] No inhibition of LmPTR1 could be detected by DMSO itself at the mentioned concentrations. […]

[3] = pH 6, inhibitor 50 µM, 250 µM NADPH, 22.5 µM folic acid, pH 6, triplicate, n.i. = no inhibition at 50 µM, read-out: % Inhibition at c = 50 µM
[4] = in brackets: 95% confidence interval, n = 4 to 7 concentrations, non-linear regression, read-out: IC50
[5] = 250 µM NADPH, 22.5 µM folic acid, pH 6, triplicate, n.i. = no inhibition at 50 µM

T1 sequence (Q01782 whole entry): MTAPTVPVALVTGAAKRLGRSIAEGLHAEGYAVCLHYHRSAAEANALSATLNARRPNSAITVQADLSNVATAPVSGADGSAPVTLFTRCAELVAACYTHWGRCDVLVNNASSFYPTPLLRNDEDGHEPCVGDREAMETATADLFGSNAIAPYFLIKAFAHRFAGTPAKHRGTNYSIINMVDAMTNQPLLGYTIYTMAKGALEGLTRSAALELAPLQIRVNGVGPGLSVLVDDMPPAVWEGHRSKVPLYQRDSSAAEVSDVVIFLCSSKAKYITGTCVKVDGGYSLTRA

Question: With `COc1cc([C@H]2Oc3cc(-c4oc5cc(O)cc(O)c5c(=O)c4O)ccc3O[C@@H]2CO)ccc1O` [2,3-dehydrosilybin A] as the compound, how does the pEC50 [1] read?
Answer: The pEC50 was 5.14.

Question: What about the inhibition at 50 µM ([1]; at a concentration of 50 µM, concentration-effect curve, read-out: maximum of inhibition achieved) of the same compound?
Answer: Its inhibition at 50 µM is 64%.

Question: And the inhibition at 50 µM [1, 3]?
Answer: The inhibition at 50 µM was greater than 50%.

Question: What about the “solubility under the assay conditions” value [2] of the same compound?
Answer: Its value is “limited solubility”.

Question: For `O=C(O[C@@H]1Cc2c(O)cc(O)cc2O[C@@H]1c1ccc(O)c(O)c1)c1cc(O)c(O)c(O)c1` [(−)-epicatechin-3-gallate], which inhibition at 50 µM [1, 3] is on record?
Answer: The inhibition at 50 µM was 24%.

Question: With `O=c1cc(-c2ccc(O)cc2)oc2cc(OC3OC(CO)C(O)C(O)C3O)cc(O)c12` (stereo not shown) [apigenin-7-glucoside] as the compound, how does the pIC50 [1] read?
Answer: The pIC50 was 4.36.

Question: And the inhibition at 50 µM [1, 3]?
Answer: The inhibition at 50 µM was greater than 50%.

Question: With `CC(C)=CCc1c(O)cc2oc3cc(O)c(O)c(CCC(C)(C)O)c3c(=O)c2c1O` [garcinone C] as the compound, how does the pIC50 [1, 4] read?
Answer: Its pIC50 is 4.58.

Question: For `COc1cc([C@@H]2Oc3ccc([C@H]4Oc5cc(O)cc(O)c5C(=O)[C@@H]4O)cc3O[C@H]2CO)ccc1O` [isosilybin B], which inhibition at 50 µM ([1]; pH 6, read-out: % Inhibition at c = 50 µM) is on record?
Answer: Its inhibition at 50 µM is 26%.

Question: For `COc1cc(O)c(CC=C(C)C)c2c1C(=O)CC(c1ccc(O)cc1)O2` (stereo not shown) [isoxanthohumol], which inhibition at 50 µM [1, 3] is on record?
Answer: Its inhibition at 50 µM is 22%.

Question: Which “% Inhibition at c = 50 µM” value [1, 5] does the source give for `COc1ccc([C@H]2OC[C@H]3[C@@H]2CO[C@@H]3c2cc(OC)c(OC)c(OC)c2)cc1OC` [magnolin] here?
Answer: Its value is “n.i”.

Question: With `O=c1c(O)c(-c2cc(O)c(O)c(O)c2)oc2cc(O)cc(O)c12` [myricetin] as the compound, how does the pIC50 [1, 4] read?
Answer: Its pIC50 is 4.68.

Question: And the inhibition at 50 µM ([1]; pH 6, read-out: % Inhibition at c = 50 µM, inhibitor 50 µM, 250 µM NADPH, 22.5 µM folic acid, pH 6, triplicate, n.i. = no inhibition at 50 µM)?
Answer: The inhibition at 50 µM was greater than 50%.

Question: With `O=C(/C=C/c1ccc(O)c(O)c1)O[C@H](Cc1ccc(O)c(O)c1)C(=O)O` [rosmarinic acid] as the compound, how does the inhibition at 50 µM [1, 3] read?
Answer: The inhibition at 50 µM was 20%.

Question: With `O=C(/C=C/c1ccc(O)c(O)c1/C=C/c1ccc(O)c(O)c1)O[C@H](Cc1ccc(O)c(O)c1)C(=O)O` [salvianolic acid A] as the compound, how does the pIC50 [1] read?
Answer: Its pIC50 is 4.37.

Question: What about the inhibition at 50 µM [1, 3] of the same compound?
Answer: Its inhibition at 50 µM is greater than 50%.

Question: With `COc1cc([C@H]2Oc3cc([C@H]4Oc5cc(O)cc(O)c5C(=O)[C@@H]4O)ccc3O[C@@H]2CO)ccc1O` [silybin A] as the compound, how does the inhibition at 50 µM [1, 3] read?
Answer: The inhibition at 50 µM was 14%.

Question: With `COc1cc([C@@H]2Oc3cc([C@H]4Oc5cc(O)cc(O)c5C(=O)[C@@H]4O)ccc3O[C@H]2CO)ccc1O` [silybin B] as the compound, how does the inhibition at 50 µM [1, 3] read?
Answer: The inhibition at 50 µM was 19%.

Question: For `COc1cc([C@@H]2Oc3c(O)cc([C@H]4Oc5cc(O)cc(O)c5C(=O)[C@@H]4O)cc3[C@H]2CO)ccc1O` [silychristin], which inhibition at 50 µM [1, 3] is on record?
Answer: The inhibition at 50 µM was 24%.

Question: With `C=C(C)[C@H](CC=C(C)C)Cc1c(O)cc(O)c2c1O[C@H](c1ccc(O)cc1O)CC2=O` [sophoraflavanone G] as the compound, how does the pIC50 [1, 4] read?
Answer: The pIC50 was 4.72.

Question: With icariside II as the compound, how does the “% Inhibition at c = 50 µM” value [1, 5] read?
Answer: The value was 35%.

Question: For phillyrin, which “% Inhibition at c = 50 µM” value [1, 5] is on record?
Answer: Its value is “n.i”.
